The source of these data is patent US5965717A, “Organic pigments from twisted benzidines” (North Carolina State University, priority 1997, dated 1999).

The test system of data set [1] is Salmonella typhimurium strains, TA98 and TA100. Put plainly: Ames test (Salmonella mammalian microsome mutagenicity assay), with and without rat liver S9. The settings on record: presence and absence of metabolic activation (rat liver S9). In kind it is cell-based. An excerpt: (§1) The most widely accepted mutagenicity screening test procedure for amines is the Salmonella mammalian microsome mutagenicity assay developed by Ames et al. (Mutat. Res., 31 (1975) 347), hereinafter referred to as the Ames test. Subsequently, a modification of the Ames test was introduced by Prival et al. (Mutat. Res., 97 (2) (1982) 103) specifically for evaluating the mutagenicity of azo compounds, hereinafter referred to as the Prival modification. For a general discussion of mutagenicity as it pertains to colored materials, see, for instance, Freeman et al., Genotoxicity of Azo Dyes: Bases and Implications, Physico-Chemical Principles of Color Chemistry, Advances in Color Chemistry Series, Vol. 4, ed. by A. T. Peters and H. S. Freeman (Blackie Academic Press: Glasgow, 1996) 254-291; Freeman et al., Dyes Pigm. 8 (6) (1987) 431-47; and Freeman et al., CHEMTECH, July (1991), 438-445.
(§2) Mutagenicity testing of the pure derivatives of benzidine was performed using the standard Ames test, as described by Ames et al. (Mutat. Res., 31 (1975) 347). Mutagenicity testing of the various pigments was performed using the standard Ames test, and also using the Prival modification, as described by Prival et al. (Mutat. Res., 97 (2) (1982) 103).
(§3) More particularly, two Salmonella typhimurium strains, TA98 and TA100, were employed for mutagenicity testing. All benzidine derivatives and the pigments made therefrom were evaluated in the presence and absence of metabolic activation. In the Ames test, metabolic activation was achieved using rat liver S9, whereas hamster liver S9 was employed in the Prival modification. A mutagenic response was recorded for a test compound if the number of revertant colonies counted was more than twice the number of spontaneous revertant colonies formed in the absence of the test compound. A nonmutagenic response (Ames negative or Prival negative) was recorded when the number of revertant colonies counted was less than twice the number of spontaneous revertant colonies.
A general note: In the Ames test, an excess of revertant colonies over the control signals mutagenicity.

Another data set relates to Salmonella. The settings on record: cited from earlier work.
The conditions of data set [2]: in N,N-dimethylformamide (DMF); cited from earlier work.
Data set [3] concerns Salmonella typhimurium strains, TA98 and TA100. The data set can be described thus: Prival modification of the Ames test, with and without hamster liver S9. The settings on record: presence and absence of metabolic activation (hamster liver S9). In kind it is cell-based.
Text: as §1, §2, §3

Turning to `CCCOc1cc(-c2cc(OCCC)c(N)cc2C)c(C)cc1N` [compound 12, 2,2'-dimethyl-5,5'-dipropoxybenzidine], in data set [1], the “mutagenicity in the Ames test” value is “Ames negative (the number of revertant colonies counted was less than twice the number of spontaneous revertant colonies)”. For `Cc1cc(-c2cc(C)c(N)c(C)c2)cc(C)c1N` [3,5,3',5'-tetramethylbenzidine], the “mutagenicity in the Ames test (prior art)” value (shortened to “mutagenicity … (prior art)”) in the data set on Salmonella is listed as “nonmutagenic”. For `Nc1ccc(-c2ccc(N)c(Cl)c2)cc1Cl` [3,3'-dichlorobenzidine], in the data set with Salmonella, the “mutagenicity … (prior art)” value was “mutagenic”.

Turning to `COc1cc(-c2ccc(NN=C(C(C)=O)C(=O)Nc3ccccc3)c(OC)c2)ccc1NN=C(C(C)=O)C(=O)Nc1ccccc1` [compound 1], the λmax in data set [2] is 445 nm. On to `CCCOc1cc(-c2cc(OCCC)c(NN=C(C(C)=O)C(=O)Nc3ccccc3)cc2C)c(C)cc1NN=C(C(C)=O)C(=O)Nc1ccccc1` [Pigment 95], for which, in data set [1], the “mutagenicity in the Ames test” value is “negative (the number of revertant colonies counted was less than twice the number of spontaneous revertant colonies)”. Also, the “mutagenicity in the Prival modification” value in data set [3] was “negative (the number of revertant colonies counted was less than twice the number of spontaneous revertant colonies)”. On to `CCCOc1cc(-c2cc(OCCC)c(NN=C(C(C)=O)C(=O)Nc3ccccc3OC)cc2OC)c(OC)cc1NN=C(C(C)=O)C(=O)Nc1ccccc1OC` [Pigment 98], for which the “mutagenicity in the Ames test” value in data set [1] is reported as “negative (the number of revertant colonies counted was less than twice the number of spontaneous revertant colonies)”. Besides, the “mutagenicity in the Prival modification” value in data set [3] is on record as “negative (the number of revertant colonies counted was less than twice the number of spontaneous revertant colonies)”. Take `COc1cc(-c2ccc(N)c(OC)c2)ccc1N` [3,3'-dimethoxybenzidine]: in the data set with Salmonella, the “mutagenicity … (prior art)” value is given as “mutagenic”. Regarding `CCCOc1cc(-c2cc(OCCC)c(NN=C(C(C)=O)C(=O)Nc3ccccc3OC)cc2Cl)c(Cl)cc1NN=C(C(C)=O)C(=O)Nc1ccccc1OC` [Pigment 107], in data set [1], the “mutagenicity in the Ames test” value is recorded as “negative (the number of revertant colonies counted was less than twice the number of spontaneous revertant colonies)”. Also, the “mutagenicity in the Prival modification” value in data set [3] was “negative (the number of revertant colonies counted was less than twice the number of spontaneous revertant colonies)”. As to `CCCOc1cc(-c2cc(OCCC)c(NN=C(C(C)=O)C(=O)Nc3ccc4[nH]c(=O)[nH]c4c3)cc2C)c(C)cc1NN=C(C(C)=O)C(=O)Nc1ccc2[nH]c(=O)[nH]c2c1` [Pigment 113], the “mutagenicity in the Ames test” value in data set [1] is on record as “negative (the number of revertant colonies counted was less than twice the number of spontaneous revertant colonies)”. In addition, the “mutagenicity in the Prival modification” value in data set [3] is “negative (the number of revertant colonies counted was less than twice the number of spontaneous revertant colonies)”. Take `CCCOc1cc(-c2cc(OCCC)c(N=CC3C(=O)NC(=S)NC3=O)cc2C)c(C)cc1N=CC1C(=O)NC(=S)NC1=O` [Pigment 93]: the “mutagenicity in the Ames test” value in data set [1] was “negative (the number of revertant colonies counted was less than twice the number of spontaneous revertant colonies)”. Besides, the “mutagenicity in the Prival modification” value in data set [3] is reported as “negative (the number of revertant colonies counted was less than twice the number of spontaneous revertant colonies)”. For the molecule `Cc1cc(-c2ccc(N)c(C)c2)ccc1N` [3,3'-dimethylbenzidine], the “mutagenicity … (prior art)” value in the data set on Salmonella is listed as “mutagenic”.

Turning to `COc1ccccc1NN=C(C(C)=O)C(=O)Nc1ccccc1` [compound 2], in data set [2], the λmax is recorded as 392 nm. Turning to `CCCOc1cc(-c2cc(OCCC)c(N)cc2OC)c(OC)cc1N` [compound 26, 2,2'-dimethoxy-5,5'-dipropoxybenzidine], in data set [1], the “mutagenicity in the Ames test” value is on record as “Ames negative (the number of revertant colonies counted was less than twice the number of spontaneous revertant colonies)”. `CCCOc1cc(-c2cc(OCCC)c(NN=C3C(=O)N(c4ccccc4)N=C3C)cc2C)c(C)cc1NN=C1C(=O)N(c2ccccc2)N=C1C` [Pigment 108]: the “mutagenicity in the Ames test” value in data set [1] is reported as “negative (the number of revertant colonies counted was less than twice the number of spontaneous revertant colonies)”. Also, in data set [3], the “mutagenicity in the Prival modification” value is given as “negative (the number of revertant colonies counted was less than twice the number of spontaneous revertant colonies)”.
